Measurements taken from patent US12595591B2, “Peptide libraries having enhanced subsequence diversity and methods for use thereof” (ROCHE […], INC., priority 2019, dated 2026).
No end group written: not given here.

What was measured:
[1] = target: T1, biotin-labeled DsbA (Escherichia coli, UniProt P0AEG4); assay: Peptide microarray binding of biotin-labeled DsbA, Cy5-streptavidin fluorescence detection; settings: fluorescent signal intensity measured by peptide microarray
T1 construct: purchased abcam
T1 sequence (P0AEG4 20-208): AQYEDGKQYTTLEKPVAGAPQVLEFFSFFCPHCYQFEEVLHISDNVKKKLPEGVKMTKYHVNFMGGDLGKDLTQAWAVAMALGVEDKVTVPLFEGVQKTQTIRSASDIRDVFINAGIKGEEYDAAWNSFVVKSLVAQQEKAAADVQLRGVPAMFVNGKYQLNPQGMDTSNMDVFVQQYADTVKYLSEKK
Text: Briefly, the peptide array was synthesized by light-directed array synthesis in a Roche NimbleGen Maskless Array Synthesizer (MAS) using an amino-functionalized substrate as previously reported (Forsström, et al., “Proteome-wide Epitope Mapping of Antibodies Using Ultra-dense Peptide Arrays,” Molecular & Cellular Proteomics 13:1585-1597 (2014) and Lyamichev, et al., “Stepwise Evolution Improves Identification of Diverse Peptides Binding to a Protein Target,” Nature Scientific Reports 7:12116 (2017), both of which are incorporated herein by reference in their entireties). L-amino acids were synthesized by Orgentis Chemicals GmbH. Custom amino acids were purchased from Lifetein. Cy5™-streptavidin was purchased from GE Healthcare, Blocker™ BSA (10%) in PBS from ThermoFisher, and SecureSeal™ hybridization chambers from Grace Bio-Labs. Final side chain deprotection was performed by incubating the microarray in 60 mM EDT and 25 mM TIPS in 95% TFA (v/v) for 30 min at room temperature. The microarray was then washed twice in methanol for 30 seconds, once in 1×TBST for 1 min, twice in TBS for 30 seconds, and then spun dry in a microcentrifuge equipped with an array holder. […] Here, 2.6 μL biotin-labeled DsbA (1.5 mg/mL, abcam) was incubated on the array in 49 μL binding buffer containing 100 mM HEPES (pH 7.3), 1% BSA, 250 mM NaCl, 20 mM L-glutathione-reduced, and 0.2 mM L-glutathione-oxidized in a hybridization chamber overnight at 4° C. After incubation, arrays were washed in water for 15 seconds placed directly into a streptavidin-Cy5 detection bath. Positive binding to DsbA was determined by the detection of Streptavidin-Cy5. Streptavidin-Cy5 binding to all arrays was performed with 20 μL streptavidin-Cy5 (1 μg/mL) in 30 mL binding buffer containing 10 mM Tris-HCl (pH 7.4), 1% Casein, 0.05% Tween-20 in a 30 mL pap jar for 1 hour at room temperature. After incubation, arrays were washed in 20 mM Tris-HCl (pH 7.8), 0.2 M NaCl, 1% SDS for 30 seconds followed by a 30 seconds wash in water. The arrays were then dried by spinning in a microcentrifuge equipped with an array holder. Data was analyzed by measuring Cy5 fluorescence intensity of the arrays and extracting data, as previously described in Lyamichev, et al. (2017).
To narrow the number of possible 15-mer peptides in both libraries down to approximately 3 million peptides, a calculation was run to select for the maximum diversity of 6mer peptide sequences. Each 15-mer sequence was replicated two times.

[2] = target: T1, biotin-labeled DsbA; assay: Biacore kinetic analysis of peptide binding to immobilized biotin-labeled DsbA
Procedure: The discovered and incrementally optimized novel DsbA-binding peptides were subject to kinetic characterization. Kinetic analysis of the interaction between the discovered peptides and DsbA was performed using a Biacore XI00. Biotin-labeled DsbA (1 uM) was immobilized on streptavidin coated chip (GE Healthcare) to a target level of 1,000 response units in HBS-P+. […] Fourteen dilutions of peptide from 5000 nM to 0.6 nM in HBS-P+ were flowed over the DsbA coated chip in triplicate with a contact time of 120 seconds and a dissociation time of 600 seconds. […] All peptides were amidated on the C-terminus.

Substance | SIGNAL INTENSITY [1] | koff [2] | kon [2]
PSPWATCDF-NH2 | 82 |  | 
YVYGMCWKDYTTDK-NH2 | 2297 | 0.057 s⁻¹ | 728000 M⁻¹ s⁻¹
HNWAAQCLNPDQAKL-NH2 | 2640 | 0.0292 s⁻¹ | 510000 M⁻¹ s⁻¹
DFWHGDTCKVTQFDQ-NH2 | 1750 | 0.0271 s⁻¹ | 130000 M⁻¹ s⁻¹
NDYQYKGQQCLDPKY-NH2 | 3623 | 0.0246 s⁻¹ | 515000 M⁻¹ s⁻¹
VIGQCLKN-NH2 | 588 |  | 
DFWHGETCKVTQFDQ-NH2 | 1801 | 0.0185 s⁻¹ | 220000 M⁻¹ s⁻¹
VILGQCLKQ-NH2 | 965 |  | 
VIVGQCLKK-NH2 | 282 |  | 
SIIGMCYKKDPS-NH2 | 1365 |  | 
DFWHGEQCKVTQFDQ-NH2 | 4590 | 0.0139 s⁻¹ | 259000 M⁻¹ s⁻¹
WQYENWAITKWQCVK-NH2 | 1427 |  | 
HNWAAQCLKDQAKL-NH2 | 1759 | 0.0448 s⁻¹ | 509000 M⁻¹ s⁻¹
YVYGMCWKDYTDTDK-NH2 | 2114 | 0.0627 s⁻¹ | 538000 M⁻¹ s⁻¹
